Measurements reported in ChEMBL document CHEMBL5335856, “Structurally Diverse Alkaloids with Anti-Renal-Fibrosis Activity from the Centipede Scolopendra subspinipes mutilans” (J Nat Prod, 2024).
The source made the active and inactive calls.

Tests used:
Assay type in all cases: functional, cell-based
RAW264.7 [1] = experiment: Antiinflammatory activity against LPS-induced mouse RAW264.7 cells assessed as reduction in iNOS protein level at 20 uM
RAW264.7 [2] = experiment: Antiinflammatory activity against LPS-induced mouse RAW264.7 cells assessed as reduction in COX-2 protein level at 20 uM
NRK-52E [3] = experiment: Anti-renal-fibrosis activity in TGF-beta1 induced rat NRK-52E cells assessed as downregulation of alpha-SMA protein level at 20 uM by Western blot analysis
NRK-52E [4] = experiment: Anti-renal-fibrosis activity in TGF-beta1 induced rat NRK-52E cells assessed as downregulation of fibronectin protein level at 20 uM by Western blot analysis
NRK-52E [5] = experiment: Anti-renal-fibrosis activity in TGF-beta1 induced rat NRK-52E cells assessed as downregulation of collagen I protein level at 20 uM by Western blot analysis

Measured: Activity

N=C(N)N1CCC[C@H]1c1ccc2cc(O)cnc2c1O
active: RAW264.7 [1] | RAW264.7 [2]

COc1cc(=O)n(C)c2c(O)cccc12
active: all assays above

COc1cc(=O)[nH]c2c(OC)cccc12
active: all assays above

COc1c(O)cnc2c(O)cccc12
active: RAW264.7 [1] | RAW264.7 [2]

COc1c(O)c(=O)n(C)c2c(O)cccc12
active: all assays above

Oc1cnc2c(O)cccc2c1
active: RAW264.7 [1] | RAW264.7 [2]
